Results published in paper PMC8954547, “Nonpeptidic Z360-Analogs Tagged with Trivalent Radiometals as Anti-CCK2R Cancer Theranostic Agents: A Preclinical Study” (Pharmaceutics, 2022).

Tested on: SCID mice bearing twin HEK293-CCK2i4svR and wtHEK293 tumors
Test: Biodistribution in SCID mice bearing twin HEK293-CCK2i4svR and wtHEK293 xenografts
Format: in vivo
In short: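 Uptake is expressed as %IA/g (mean ± SD, n = 4) from gamma counting of blood, organs and tumours collected at set times: 1, 4 and 24 h pi for ^67Ga, 4 and 24 h for ^111In (±gelofusine), 4–96 h for ^177Lu. Radioligands were given iv at 7–40 pmol to SCID mice bearing twin CCK2i4svR-transfected and wild-type HEK293 xenografts.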

## CC(C)(C)C(=O)CN1C(=O)[C@H](NC(=O)Nc2cccc(C(=O)NCCOCCOCCOCCNC(=O)[C@H](CCC(=O)O)NC(=O)CCC(C(=O)O)N3CCN(CC(=O)[O-])CCN(CC(=O)[O-])CCN(CC(=O)[O-])CC3)c2)CN(C2CCCCC2)c2ccccc21.[177Lu+3] (stereo in doubt) [[^177Lu]Lu-GAS3]
96 pi
  Tumor to kidney ratio: 13.8
4 h pi
  Biodistribution, Blood: 3.19 ± 0.44 %IA/g
  Biodistribution, CCK2i4svR(+) Tumor: 20.88 ± 1.20 %IA/g
  Biodistribution, CCK2i4svR(-) Tumor: 1.14 ± 0.50 %IA/g
  Biodistribution, Femur: 0.60 ± 0.07 %IA/g
  Biodistribution, Heart: 0.94 ± 0.21 %IA/g
  Biodistribution, Intestines: 1.85 ± 0.18 %IA/g
  Biodistribution, Kidneys: 8.86 ± 0.67 %IA/g
  Biodistribution, Liver: 2.73 ± 0.31 %IA/g
  Biodistribution, Lungs: 1.94 ± 0.21 %IA/g
  Biodistribution, Muscle: 0.31 ± 0.04 %IA/g
  Biodistribution, Pancreas: 1.00 ± 0.13 %IA/g
  Biodistribution, Spleen: 1.19 ± 0.12 %IA/g
  Biodistribution, Stomach: 0.64 ± 0.07 %IA/g
  Tumor to kidney ratio: 2.4
24 h pi
  Biodistribution, Blood: 0.07 ± 0.01 %IA/g
  Biodistribution, CCK2i4svR(+) Tumor: 5.38 ± 0.77 %IA/g
  Biodistribution, CCK2i4svR(-) Tumor: 0.37 ± 0.12 %IA/g
  Biodistribution, Femur: 0.11 ± 0.02 %IA/g
  Biodistribution, Heart: 0.08 ± 0.02 %IA/g
  Biodistribution, Intestines: 0.17 ± 0.04 %IA/g
  Biodistribution, Kidneys: 1.42 ± 0.29 %IA/g
  Biodistribution, Liver: 0.51 ± 0.05 %IA/g
  Biodistribution, Lungs: 0.26 ± 0.02 %IA/g
  Biodistribution, Muscle: 0.03 ± 0.01 %IA/g
  Biodistribution, Pancreas: 0.07 ± 0.01 %IA/g
  Biodistribution, Spleen: 0.45 ± 0.05 %IA/g
  Biodistribution, Stomach: 0.11 ± 0.01 %IA/g
  Tumor to kidney ratio: 3.8
48 h pi
  Biodistribution, Blood: 0.05 ± 0.01 %IA/g
  Biodistribution, CCK2i4svR(+) Tumor: 3.39 ± 0.23 %IA/g
  Biodistribution, CCK2i4svR(-) Tumor: 0.25 ± 0.14 %IA/g
  Biodistribution, Femur: 0.14 ± 0.04 %IA/g
  Biodistribution, Heart: 0.08 ± 0.01 %IA/g
  Biodistribution, Intestines: 0.07 ± 0.01 %IA/g
  Biodistribution, Kidneys: 0.47 ± 0.07 %IA/g
  Biodistribution, Liver: 0.35 ± 0.09 %IA/g
  Biodistribution, Lungs: 0.18 ± 0.03 %IA/g
  Biodistribution, Muscle: 0.04 ± 0.01 %IA/g
  Biodistribution, Pancreas: 0.08 ± 0.04 %IA/g
  Biodistribution, Spleen: 0.43 ± 0.10 %IA/g
  Biodistribution, Stomach: 0.08 ± 0.01 %IA/g
72 h pi
  Biodistribution, Blood: 0.04 ± 0.00 %IA/g
  Biodistribution, CCK2i4svR(+) Tumor: 1.99 ± 0.31 %IA/g
  Biodistribution, CCK2i4svR(-) Tumor: 0.13 ± 0.03 %IA/g
  Biodistribution, Femur: 0.06 ± 0.00 %IA/g
  Biodistribution, Heart: 0.04 ± 0.01 %IA/g
  Biodistribution, Intestines: 0.04 ± 0.01 %IA/g
  Biodistribution, Kidneys: 0.17 ± 0.04 %IA/g
  Biodistribution, Liver: 0.32 ± 0.02 %IA/g
  Biodistribution, Lungs: 0.15 ± 0.01 %IA/g
  Biodistribution, Muscle: 0.03 ± 0.01 %IA/g
  Biodistribution, Pancreas: 0.03 ± 0.01 %IA/g
  Biodistribution, Spleen: 0.44 ± 0.07 %IA/g
  Biodistribution, Stomach: 0.06 ± 0.02 %IA/g
96 h pi
  Biodistribution, Blood: 0.04 ± 0.00 %IA/g
  Biodistribution, CCK2i4svR(+) Tumor: 1.52 ± 0.43 %IA/g
  Biodistribution, CCK2i4svR(-) Tumor: 0.00 ± 0.04 %IA/g
  Biodistribution, Femur: 0.06 ± 0.00 %IA/g
  Biodistribution, Heart: 0.03 ± 0.01 %IA/g
  Biodistribution, Intestines: 0.03 ± 0.01 %IA/g
  Biodistribution, Kidneys: 0.11 ± 0.03 %IA/g
  Biodistribution, Liver: 0.25 ± 0.02 %IA/g
  Biodistribution, Lungs: 0.14 ± 0.01 %IA/g
  Biodistribution, Muscle: 0.01 ± 0.00 %IA/g
  Biodistribution, Pancreas: 0.02 ± 0.00 %IA/g
  Biodistribution, Spleen: 0.39 ± 0.02 %IA/g
  Biodistribution, Stomach: 0.04 ± 0.00 %IA/g
mouse, in vivo
  Background clearance / excretion route: rapid background clearance predominantly via the kidneys
